pIC50: −log10 of the molar value.
How the values were obtained:
Assay type in all cases: cell-based
human TLR7 = human TLR7 (Homo sapiens (Human), UniProt Q9NYK1); experiment: TLR7 inhibition reporter assay (HEK-Blue, SEAP); settings: HEK-Blue cells overexpressing human TLR7, gardiquimod 7.5 μM stimulation
Outline: (§1)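 SEAP read-out via detection medium after 22 h at 37 °C, 5% CO2; percent inhibition relative to agonist-plus-DMSO and known-inhibitor wells. Agonists: TLR7 gardiquimod 7.5 μM, TLR8 R848 15.9 μM, TLR9 ODN2006 5 nM (final). Compound range 0.05 nM–50 μM, 30 min pre-treatment.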

human TLR8 = human TLR8 (Homo sapiens (Human), UniProt Q9NR97); experiment: TLR8 inhibition reporter assay (HEK-Blue, SEAP); settings: HEK-Blue cells overexpressing human TLR8, R848 15.9 μM stimulation
Outline: as §1

human TLR9 = human TLR9 (Homo sapiens (Human), UniProt Q9NR96); experiment: TLR9 inhibition reporter assay (HEK-Blue, SEAP); settings: HEK-Blue cells overexpressing human TLR9, ODN2006 5 nM stimulation
Outline: as §1

Sequence of human TLR8 (Q9NR97 27-1041): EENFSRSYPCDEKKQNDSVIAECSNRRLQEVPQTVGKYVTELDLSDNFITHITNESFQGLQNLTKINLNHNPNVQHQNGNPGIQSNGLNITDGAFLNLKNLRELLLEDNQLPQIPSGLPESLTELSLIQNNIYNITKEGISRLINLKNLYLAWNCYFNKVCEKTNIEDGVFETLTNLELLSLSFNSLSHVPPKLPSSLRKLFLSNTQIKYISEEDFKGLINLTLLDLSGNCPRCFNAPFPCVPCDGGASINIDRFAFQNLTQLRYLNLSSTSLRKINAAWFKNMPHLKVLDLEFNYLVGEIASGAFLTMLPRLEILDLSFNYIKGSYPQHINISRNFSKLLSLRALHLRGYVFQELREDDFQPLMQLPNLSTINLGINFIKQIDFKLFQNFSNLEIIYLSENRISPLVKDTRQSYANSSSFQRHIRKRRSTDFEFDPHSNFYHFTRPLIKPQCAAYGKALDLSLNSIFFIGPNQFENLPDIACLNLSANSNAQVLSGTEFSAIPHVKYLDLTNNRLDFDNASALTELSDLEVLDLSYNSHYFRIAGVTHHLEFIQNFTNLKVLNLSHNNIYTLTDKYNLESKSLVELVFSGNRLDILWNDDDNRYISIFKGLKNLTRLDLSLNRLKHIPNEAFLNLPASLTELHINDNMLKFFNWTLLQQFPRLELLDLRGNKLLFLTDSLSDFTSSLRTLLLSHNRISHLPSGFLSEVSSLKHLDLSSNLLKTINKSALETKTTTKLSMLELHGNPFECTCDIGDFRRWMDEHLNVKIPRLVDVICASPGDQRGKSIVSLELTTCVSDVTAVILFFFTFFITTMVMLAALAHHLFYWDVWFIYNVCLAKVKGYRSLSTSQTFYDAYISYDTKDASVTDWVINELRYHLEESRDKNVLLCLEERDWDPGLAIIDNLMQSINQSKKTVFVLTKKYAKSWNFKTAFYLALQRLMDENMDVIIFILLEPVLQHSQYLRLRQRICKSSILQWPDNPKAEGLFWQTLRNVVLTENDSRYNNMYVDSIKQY
Sequence of human TLR9 (Q9NR96 26-1032): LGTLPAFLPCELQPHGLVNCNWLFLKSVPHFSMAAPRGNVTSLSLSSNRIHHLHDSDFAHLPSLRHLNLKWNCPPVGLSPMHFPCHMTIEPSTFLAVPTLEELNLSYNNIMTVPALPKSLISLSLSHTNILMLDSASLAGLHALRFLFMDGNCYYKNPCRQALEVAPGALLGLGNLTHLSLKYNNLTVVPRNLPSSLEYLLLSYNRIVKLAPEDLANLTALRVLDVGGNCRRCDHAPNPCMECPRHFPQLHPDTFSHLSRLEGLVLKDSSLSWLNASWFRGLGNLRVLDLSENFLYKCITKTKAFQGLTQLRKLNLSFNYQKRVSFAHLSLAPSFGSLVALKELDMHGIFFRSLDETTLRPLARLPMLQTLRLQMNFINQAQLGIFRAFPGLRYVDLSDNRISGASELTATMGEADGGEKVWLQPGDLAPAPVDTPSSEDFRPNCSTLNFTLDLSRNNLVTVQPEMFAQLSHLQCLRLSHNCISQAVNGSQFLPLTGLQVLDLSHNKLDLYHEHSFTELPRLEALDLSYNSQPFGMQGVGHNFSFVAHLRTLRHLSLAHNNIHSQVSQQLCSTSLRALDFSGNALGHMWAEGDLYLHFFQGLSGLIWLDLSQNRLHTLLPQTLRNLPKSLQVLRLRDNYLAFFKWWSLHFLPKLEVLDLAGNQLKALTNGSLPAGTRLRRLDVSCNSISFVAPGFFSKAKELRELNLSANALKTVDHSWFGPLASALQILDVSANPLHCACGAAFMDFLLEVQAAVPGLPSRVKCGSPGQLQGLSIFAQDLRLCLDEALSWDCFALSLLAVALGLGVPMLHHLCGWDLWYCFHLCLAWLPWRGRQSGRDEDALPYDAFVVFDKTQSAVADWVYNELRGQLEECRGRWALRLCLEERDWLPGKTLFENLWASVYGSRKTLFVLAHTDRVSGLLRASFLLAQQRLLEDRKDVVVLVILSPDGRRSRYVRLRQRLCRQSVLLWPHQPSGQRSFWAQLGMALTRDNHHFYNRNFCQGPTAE
Sequence of human TLR7 (Q9NYK1 27-1049): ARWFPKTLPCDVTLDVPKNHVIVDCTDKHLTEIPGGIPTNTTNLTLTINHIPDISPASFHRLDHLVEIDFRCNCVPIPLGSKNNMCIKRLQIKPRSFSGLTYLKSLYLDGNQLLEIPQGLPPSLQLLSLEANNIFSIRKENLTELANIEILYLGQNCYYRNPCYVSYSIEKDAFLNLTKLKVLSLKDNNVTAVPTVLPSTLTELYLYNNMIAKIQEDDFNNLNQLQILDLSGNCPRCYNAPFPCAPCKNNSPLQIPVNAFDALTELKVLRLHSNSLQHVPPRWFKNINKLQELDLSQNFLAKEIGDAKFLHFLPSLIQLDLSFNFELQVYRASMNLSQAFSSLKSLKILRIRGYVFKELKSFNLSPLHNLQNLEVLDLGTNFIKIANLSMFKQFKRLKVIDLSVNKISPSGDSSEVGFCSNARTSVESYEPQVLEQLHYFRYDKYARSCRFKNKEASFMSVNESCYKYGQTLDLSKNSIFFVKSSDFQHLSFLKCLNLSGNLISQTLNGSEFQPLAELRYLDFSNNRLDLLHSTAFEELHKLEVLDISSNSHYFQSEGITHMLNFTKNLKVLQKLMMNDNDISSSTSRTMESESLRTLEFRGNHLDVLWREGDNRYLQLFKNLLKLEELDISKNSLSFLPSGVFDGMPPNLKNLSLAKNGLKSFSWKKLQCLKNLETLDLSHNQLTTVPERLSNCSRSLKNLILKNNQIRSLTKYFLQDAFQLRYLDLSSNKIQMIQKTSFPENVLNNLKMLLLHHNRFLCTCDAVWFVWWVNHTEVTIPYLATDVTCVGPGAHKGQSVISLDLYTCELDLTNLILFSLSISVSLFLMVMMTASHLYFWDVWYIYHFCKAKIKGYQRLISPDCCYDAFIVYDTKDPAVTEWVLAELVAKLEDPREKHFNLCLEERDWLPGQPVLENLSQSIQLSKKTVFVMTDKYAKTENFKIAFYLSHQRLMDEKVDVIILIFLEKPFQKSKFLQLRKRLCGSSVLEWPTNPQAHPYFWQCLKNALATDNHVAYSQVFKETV

Structure (SMILES)	pIC50 (human TLR7)	pIC50 (human TLR8)	pIC50 (human TLR9)
Cc1cc(-c2[nH]c3ccc(-c4ccnc(N5CCN(C(C)C)CC5)c4)cc3c2C(C)C)ccn1 [Example 299, 3-isopropyl-5-(2-(4-isopropylpiperazin-1-yl)pyridin-4-yl)-2-(2-methylpyridin-4-yl)-1H-indole]	6.92	7.96	5.83
Cc1cc(-c2[nH]c3ccc(-c4nnc([C@@H]5CCCNC5)o4)cc3c2C(C)C)cc(C)n1 [Example 232, (R)-2-(2-(2,6-dimethylpyridin-4-yl)-3-isopropyl-1H-indol-5-yl)-5-(piperidin-3-yl)-1,3,4-oxadiazole]	7.96	8.49	6.02
COc1ccc(-c2[nH]c3ccc(-c4ccc(N5CCN[C@H](C)C5)cc4)cc3c2C(C)C)cc1OC [Example 383, (R)-2-(3,4-dimethoxyphenyl)-3-isopropyl-5-(4-(3-methylpiperazin-1-yl)phenyl)-1H-indole]	6.87	7.35	5.33
Cc1cc(-c2[nH]c3ccc(-c4nnc(N)o4)cc3c2C(C)C)cc(C)n1 [Example 318, 5-(2-(2,6-dimethylpyridin-4-yl)-3-isopropyl-1H-indol-5-yl)-1,3,4-oxadiazol-2-amine]	7.52	7.47	5.20
CC(C)c1c(-c2ccnc3[nH]ncc23)[nH]c2ccc(-c3nnc(CC4CCCNC4)o3)cc12 (stereo not drawn) [Example 182, 2-(3-isopropyl-2-(1H-pyrazolo[3,4-b]pyridin-4-yl)-1H-indol-5-yl)-5-(piperidin-3-ylmethyl)-1,3,4-oxadiazole]	6.48	7.36	6.23
COc1ccc(-c2[nH]c3ccc(-c4cccc(C(=O)N5CCC(O)CC5)c4)cc3c2CC(F)(F)F)cc1OC [Example 31, (3-(2-(3,4-dimethoxyphenyl)-3-(2,2,2-trifluoroethyl)-1H-indol-5-yl)phenyl)(4-hydroxypiperidin-1-yl)methanone]	6.05	6.51	4.59
Cc1cc(-c2[nH]c3ccc(-c4nc(C(=O)NC5CCN(C(C)C)CC5)c(C)o4)cc3c2C(C)C)ccn1 [Example 191, 2-(3-isopropyl-2-(2-methylpyridin-4-yl)-1H-indol-5-yl)-N-(1-isopropylpiperidin-4-yl)-5-methyloxazole-4-carboxamide]	6.95	7.89	5.47
Cc1cc(-c2[nH]c3ccc(-c4ccnc(N5CCN(C)CC5)c4)cc3c2C(C)C)ccn1 [Example 269, 3-isopropyl-5-(2-(4-methylpiperazin-1-yl)pyridin-4-yl)-2-(2-methylpyridin-4-yl)-1H-indole]	7.13	8.26	6.08
Cc1cc(-c2[nH]c3ccc(-c4nc(C(=O)NC5CCN(C(C)C)CC5)co4)cc3c2C(C)C)ccn1 [Example 173, 2-(3-isopropyl-2-(2-methylpyridin-4-yl)-1H-indol-5-yl)-N-(1-isopropylpiperidin-4-yl)oxazole-4-carboxamide]	7.34	8.54	5.73
COc1ccc(-c2[nH]c3ccc(-c4cccc(-c5cccc(CN(C)C)c5)c4)cc3c2C(C)C)cc1OC [Example 397, 1-(3′-(2-(3,4-dimethoxyphenyl)-3-isopropyl-1H-indol-5-yl)-[1,1′-biphenyl]-3-yl)-N,N-dimethylmethanamine]	5.48	7.00	5.38
COc1ccc(-c2[nH]c3ccc(-c4ccc(N5CCN(C)CC5)nc4)cc3c2C(C)C)cc1OC [Example 392, 2-(3,4-dimethoxyphenyl)-3-isopropyl-5-(6-(4-methylpiperazin-1-yl)pyridin-3-yl)-1H-indole]	7.49	8.12	5.97
COc1ccc(-c2[nH]c3ccc(-c4nnc(CN5CCOCC5)o4)cc3c2C(C)C)cc1OC [Example 115, 4-((5-(2-(3,4-dimethoxyphenyl)-3-isopropyl-1H-indol-5-yl)-1,3,4-oxadiazol-2-yl)methyl)morpholine]	6.24	6.69	< 4.30
Cc1cc(-c2[nH]c3ccc(-c4nc(C(=O)NCC(C)CN)co4)cc3c2C(C)C)cc(C)n1 (stereo not drawn) [Example 277, N-(3-amino-2-methylpropyl)-2-(2-(2,6-dimethylpyridin-4-yl)-3-isopropyl-1H-indol-5-yl)oxazole-4-carboxamide]	7.68	7.89	5.97
Cc1cc(-c2[nH]c3ccc(-c4nc(C(=O)NCCCN5CCN(C)CC5)co4)cc3c2C(C)C)cc(C)n1 [Example 286, 2-(2-(2,6-dimethylpyridin-4-yl)-3-isopropyl-1H-indol-5-yl)-N-(3-(4-methylpiperazin-1-yl)propyl)oxazole-4-carboxamide]	7.92	8.72	6.69

From patent publication US11420958B2, “Aryl and heteroaryl substituted indole compounds” (BRISTOL-MYERS SQUIBB COMPANY, priority 2017, dated 2022)
